From patent publication US20240376097A1, “BCL-2 Inhibitor” (BeiGene Ltd., priority 2020, published 2024)
Like-named read-outs stand apart in the source and are kept apart here.

What was measured:
[1] = system: BCL-2 G101V knock-in cell line H96 (derive from RS4;11); assay: Bcl 2-G101V Knock-In RS4;11 Cell Proliferation Assay; assay type: cell-based; settings: Homo sapiens, RS4;11 Bcl-2 G101V knock-in clone H96, 48 hrs, CellTiter-GLO, read-out: Cellular proliferation assay (IC50, nM) RS4
How it was run: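 H96, a CRISPR-generated RS4;11 clone carrying BCL2-G101V knock-in (WES/RNA-seq validated), seeded 50,000 per well and exposed 48 h at 37 °C to 10-point dilutions topping at 1 or 10 μM. Viability by CellTiter-Glo luminescence; mean IC50.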

[2] = target: recombinant human Bcl-2-G101V protein (Homo sapiens (Human), UniProt P10415, G101V); assay: Bcl-2-G101V TR-FRET Assay; assay type: binding; settings: Bcl-2 G101V mutant, TR-FRET; read-out: Biochemical assay (IC50, nM) Bcl-2 G101V
How it was run: (§1)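 Measures how compounds block Bcl-2-G101V engaging its ligand, by TR-FRET with 337 nm excitation and a 490/520 nm emission ratio; dose-response data give IC50 via a four-parameter logistic model.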

[3] = system: recombinant human Bcl-2-G101V protein; assay: Bcl-2-G101V TR-FRET Assay; assay type: binding; settings: ratio of biochemical IC50 Bcl-2 G101V / Bcl-2 WT
How it was run: as §1

[4] = system: RS4;11 (BCL-2 dependent acute lymphoblastic leukemia cell line); assay: RS4;11 Cell Proliferation Assay; assay type: cell-based; settings: Homo sapiens, RS4-11, RS4;11 cells, read-out: Cellular proliferation assay (IC50, nM) RS4
How it was run: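 RS4;11 cells, 50,000 per well in RPMI-1640 with 10% FBS, treated 48 h at 37 °C with a 10-point dilution series topping at 1 μM. Viability read by CellTiter-Glo ATP luminescence; mean IC50 reported.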

[5] = target: recombinant human Bcl-2 D103Y protein (Homo sapiens (Human), UniProt P10415, D103Y); assay: Bcl-2-D103Y Biochemical Assay (TR-FRET); assay type: binding; settings: for IC50: TR-FRET, FITC labeled Bak peptide; for Ratio of Bcl-2 D103Y/Bcl-2 WT: ratio of IC50; for ratio of Bcl-2 D103Y/Bcl-2 wt, compared with F91b in WO2019210828: comparison in words
How it was run: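 Recombinant human Bcl-2 D103Y binding to its ligand measured by TR-FRET (ex 337 nm, em 490/520 nm) with increasing compound concentrations. Percent inhibition from the 490/520 nm ratio; IC50 from four-parameter logistic fit.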

[6] = target: Recombinant human Bcl-2 protein (Homo sapiens (Human), UniProt P10415); assay: Bcl-2 TR-FRET Assay; assay type: binding
How it was run: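 Compounds were pre-incubated with 0.05 nM recombinant Bcl-2 for 0.5 h at room temperature in potassium phosphate buffer, pH 7.5. FITC-Bak peptide (0.5 nM) and Tb-cryptate antibody were then added for 1 h. Percent inhibition from TR-FRET signals gave IC50 values.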

[7] = Bcl-2 wild type, TR-FRET, read-out: Biochemical assay (IC50, nM) Bcl-2 WT
[8] = wild type Bcl-2, unit inferred, read-out: Bcl-2 WT

Row | Compound | IC50 [1] | IC50 [2] | Ratio of Bcl-2 G101V/WT [3] | IC50 [4] | IC50 [5] | Ratio of Bcl-2 D103Y/Bcl-2 WT [5] | IC50 [6, 7] | IC50 [6, 8] | ratio of Bcl-2 D103Y/Bcl-2 wt, compared with F91b in WO2019210828 [5]
1 | CC(C)c1ccccc1C1CN(CCc2ccccc2)CCN1C1CC2(CCN(c3ccc(C(=O)NS(=O)(=O)c4ccc(NC[C@H]5CC[C@](C)(O)CC5)c([N+](=O)[O-])c4)c(Oc4cnc5[nH]ccc5c4)c3)CC2)C1 (stereo partly drawn) [Example 26, 2-((1H-pyrrolo[2,3-b]pyridin-5-yl)oxy)-N-((4-((((1r,4r)-4-hydroxy-4-methylcyclohexyl)methyl)amino)-3-nitrophenyl)sulfonyl)-4-(2-(2-(2-isopropylphenyl)-4-phenethylpiperazin-1-yl)-7-azaspiro[3.5]nonan-7-yl)benzamide] | 8.48 nM | 1.4 nM | 12.7 | 0.85 nM | 0.51 nM | 4.7 | 0.11 nM | 0.11 nM | 
2 | CC(C)c1ccccc1C1CN(Cc2ccccc2)CCN1C1CC2(CCN(c3ccc(C(=O)NS(=O)(=O)c4ccc(NCC5(F)CCOCC5)c([N+](=O)[O-])c4)c(Oc4cnc5[nH]ccc5c4)c3)CC2)C1 (stereo not drawn) [Example 27, 2-((1H-pyrrolo[2,3-b]pyridin-5-yl)oxy)-4-(2-(4-benzyl-2-(2-isopropylphenyl)piperazin-1-yl)-7-azaspiro[3.5]nonan-7-yl)-N-((4-(((4-fluorotetrahydro-2H-pyran-4-yl)methyl)amino)-3-nitrophenyl)sulfonyl)benzamide] | 7.77 nM | 2.7 nM | 10.0 | 1.05 nM | 0.49 nM | 1.8 | 0.27 nM | 0.27 nM | 
3 | Cc1ccc(CN2CCN(C3CC4(CCN(c5ccc(C(=O)NS(=O)(=O)c6ccc(NC[C@H]7CC[C@](C)(O)CC7)c([N+](=O)[O-])c6)c(Oc6cnc7[nH]ccc7c6)c5)CC4)C3)C(c3ccccc3C(C)C)C2)cc1 (stereo partly drawn) [Example 30, 2-((1H-pyrrolo[2,3-b]pyridin-5-yl)oxy)-N-((4-((((1r,4r)-4-hydroxy-4-methylcyclohexyl)methyl)amino)-3-nitrophenyl)sulfonyl)-4-(2-(2-(2-isopropylphenyl)-4-(4-methylbenzyl)piperazin-1-yl)-7-azaspiro[3.5]nonan-7-yl) benzamide] | 3.48 nM | 1.1 nM | 4.1 | 0.53 nM | 0.42 nM | 1.6 | 0.27 nM | 0.27 nM | 
4 | CCOc1ccc(CN2CCN(C3CC4(CCN(c5ccc(C(=O)NS(=O)(=O)c6ccc(NC[C@H]7CC[C@](C)(O)CC7)c([N+](=O)[O-])c6)c(Oc6cnc7[nH]ccc7c6)c5)CC4)C3)C(c3ccccc3C(C)C)C2)cc1 (stereo partly drawn) [Example 40, 2-((1H-pyrrolo[2,3-b]pyridin-5-yl)oxy)-4-(2-(4-(4-ethoxybenzyl)-2-(2-isopropylphenyl)piperazin-1-yl)-7-azaspiro[3.5]nonan-7-yl)-N-((4-((((1r,4r)-4-hydroxy-4-methylcyclohexyl)methyl)amino)-3-nitrophenyl)sulfonyl)benzamide] | 8.4 nM | 1.3 nM | 6.8 | 0.85 nM | 0.72 nM | 3.8 | 0.19 nM | 0.19 nM | 
5 | CC(C)c1ccccc1C1CN(Cc2ccc(C#N)cc2)CCN1C1CC2(CCN(c3ccc(C(=O)NS(=O)(=O)c4ccc(NC[C@H]5CC[C@](C)(O)CC5)c([N+](=O)[O-])c4)c(Oc4cnc5[nH]ccc5c4)c3)CC2)C1 (stereo partly drawn) [Example 42, 2-((1H-pyrrolo[2,3-b]pyridin-5-yl)oxy)-4-(2-(4-(4-cyanobenzyl)-2-(2-isopropylphenyl)piperazin-1-yl)-7-azaspiro[3.5]nonan-7-yl)-N-((4-((((1r,4r)-4-hydroxy-4-methylcyclohexyl)methyl)amino)-3-nitrophenyl)sulfonyl)benzamide] | 13.5 nM | 2.5 nM | 6.1 | 1.8 nM | 1.7 nM | 4.1 | 0.41 nM | 0.41 nM | 
6 | COc1cccc(CN2CCN(C3CC4(CCN(c5ccc(C(=O)NS(=O)(=O)c6cc7c(c([N+](=O)[O-])c6)N[C@H](C[C@H]6CC[C@H](O)CC6)CO7)c(Oc6cnc7[nH]ccc7c6)c5)CC4)C3)C(c3ccccc3C(C)C)C2)c1 (stereo partly drawn) [Example 45] | 3.29 nM | 0.95 nM | 4.0 | 0.41 nM | 0.54 nM | 2.3 | 0.24 nM | 0.24 nM | 
7 | COc1ccccc1CN1CCN(C2CC3(CCN(c4ccc(C(=O)NS(=O)(=O)c5ccc(NC[C@H]6CC[C@](C)(O)CC6)c([N+](=O)[O-])c5)c(Oc5cnc6[nH]ccc6c5)c4)CC3)C2)C(c2ccccc2C(C)C)C1 (stereo partly drawn) [Example 47, 2-((1H-pyrrolo[2,3-b]pyridin-5-yl)oxy)-N-((4-((((1r,4r)-4-hydroxy-4-methylcyclohexyl)methyl)amino)-3-nitrophenyl)sulfonyl)-4-(2-(2-(2-isopropylphenyl)-4-(2-methoxybenzyl)piperazin-1-yl)-7-azaspiro[3.5]nonan-7-yl) benzamide] | 5.33 nM | 0.53 nM | 4.4 | 1 nM | 0.4 nM | 3.3 | 0.12 nM | 0.12 nM | 
8 | CC(C)c1ccccc1C1CN(Cc2ccc(F)cc2F)CCN1C1CC2(CCN(c3ccc(C(=O)NS(=O)(=O)c4ccc(NC[C@H]5CC[C@](C)(O)CC5)c([N+](=O)[O-])c4)c(Oc4cnc5[nH]ccc5c4)c3)CC2)C1 (stereo partly drawn) [Example 50] | 7.9 nM | 1.2 nM | 6.7 | 0.8 nM | 1.2 nM | 6.6 | 0.18 nM | 0.18 nM | 
9 | CC(C)c1ccccc1C1CN(Cc2ccc3c(c2)CCCO3)CCN1C1CC2(CCN(c3ccc(C(=O)NS(=O)(=O)c4ccc(NC[C@H]5CC[C@](C)(O)CC5)c([N+](=O)[O-])c4)c(Oc4cnc5[nH]ccc5c4)c3)CC2)C1 (stereo partly drawn) [Example 53, 2-((1H-pyrrolo[2,3-b]pyridin-5-yl)oxy)-4-(2-(4-(chroman-6-ylmethyl)-2-(2-isopropylphenyl)piperazin-1-yl)-7-azaspiro[3.5]nonan-7-yl)-N-((4-((((1r,4r)-4-hydroxy-4-methylcyclohexyl)methyl)amino)-3-nitrophenyl)sulfonyl)benzamide] | 3.1 nM | 0.6 nM | 3.5 | 0.47 nM | 0.38 nM | 2.2 | 0.17 nM | 0.17 nM | 
10 | CC(C)c1ccccc1C1CN(Cc2ccc3sccc3c2)CCN1C1CC2(CCN(c3ccc(C(=O)NS(=O)(=O)c4ccc(NC[C@H]5CC[C@](C)(O)CC5)c([N+](=O)[O-])c4)c(Oc4cnc5[nH]ccc5c4)c3)CC2)C1 (stereo partly drawn) [Example 58, 2-((1H-pyrrolo[2,3-b]pyridin-5-yl)oxy)-4-(2-(4-(benzo[b]thiophen-5-ylmethyl)-2-(2-isopropylphenyl)piperazin-1-yl)-7-azaspiro[3.5]nonan-7-yl)-N-((4-((((1r,4r)-4-hydroxy-4-methylcyclohexyl)methyl)amino)-3-nitrophenyl)sulfonyl)benzamide] | 7.6 nM | 2 nM | 3.2 | 0.74 nM | 1.8 nM | 2.9 | 0.62 nM | 0.62 nM | significantly lower
11 | CC(C)c1ccccc1C1CN(Cc2cccc3sccc23)CCN1C1CC2(CCN(c3ccc(C(=O)NS(=O)(=O)c4ccc(NC[C@H]5CC[C@](C)(O)CC5)c([N+](=O)[O-])c4)c(Oc4cnc5[nH]ccc5c4)c3)CC2)C1 (stereo partly drawn) [Example 59, 2-((1H-pyrrolo[2,3-b]pyridin-5-yl)oxy)-4-(2-(4-(benzo[b]thiophen-4-ylmethyl)-2-(2-isopropylphenyl)piperazin-1-yl)-7-azaspiro[3.5]nonan-7-yl)-N-((4-((((1r,4r)-4-hydroxy-4-methylcyclohexyl)methyl)amino)-3-nitrophenyl)sulfonyl)benzamide] | 10.4 nM | 3 nM | 4.1 | 0.8 nM | 3.2 nM | 4.4 | 0.73 nM | 0.73 nM | significantly lower
